Five compounds from ChEMBL document CHEMBL5465560, “Selectivity Literature for EUbOPEN Chemogenomic Library” (2024) can be followed below.

The target in test [1] is Platelet-derived growth factor receptor beta (Homo sapiens, UniProt P09619). In words: Selectivity interaction (KinomeScan (DiscoverX)) EUB0001049a PDGFRB. Particulars: at 1 µM.
Test [2] concerns the target T1, Serine/threonine-protein kinase TAO2 (Homo sapiens) (UniProt Q9UL54).
T1 sequence (whole entry): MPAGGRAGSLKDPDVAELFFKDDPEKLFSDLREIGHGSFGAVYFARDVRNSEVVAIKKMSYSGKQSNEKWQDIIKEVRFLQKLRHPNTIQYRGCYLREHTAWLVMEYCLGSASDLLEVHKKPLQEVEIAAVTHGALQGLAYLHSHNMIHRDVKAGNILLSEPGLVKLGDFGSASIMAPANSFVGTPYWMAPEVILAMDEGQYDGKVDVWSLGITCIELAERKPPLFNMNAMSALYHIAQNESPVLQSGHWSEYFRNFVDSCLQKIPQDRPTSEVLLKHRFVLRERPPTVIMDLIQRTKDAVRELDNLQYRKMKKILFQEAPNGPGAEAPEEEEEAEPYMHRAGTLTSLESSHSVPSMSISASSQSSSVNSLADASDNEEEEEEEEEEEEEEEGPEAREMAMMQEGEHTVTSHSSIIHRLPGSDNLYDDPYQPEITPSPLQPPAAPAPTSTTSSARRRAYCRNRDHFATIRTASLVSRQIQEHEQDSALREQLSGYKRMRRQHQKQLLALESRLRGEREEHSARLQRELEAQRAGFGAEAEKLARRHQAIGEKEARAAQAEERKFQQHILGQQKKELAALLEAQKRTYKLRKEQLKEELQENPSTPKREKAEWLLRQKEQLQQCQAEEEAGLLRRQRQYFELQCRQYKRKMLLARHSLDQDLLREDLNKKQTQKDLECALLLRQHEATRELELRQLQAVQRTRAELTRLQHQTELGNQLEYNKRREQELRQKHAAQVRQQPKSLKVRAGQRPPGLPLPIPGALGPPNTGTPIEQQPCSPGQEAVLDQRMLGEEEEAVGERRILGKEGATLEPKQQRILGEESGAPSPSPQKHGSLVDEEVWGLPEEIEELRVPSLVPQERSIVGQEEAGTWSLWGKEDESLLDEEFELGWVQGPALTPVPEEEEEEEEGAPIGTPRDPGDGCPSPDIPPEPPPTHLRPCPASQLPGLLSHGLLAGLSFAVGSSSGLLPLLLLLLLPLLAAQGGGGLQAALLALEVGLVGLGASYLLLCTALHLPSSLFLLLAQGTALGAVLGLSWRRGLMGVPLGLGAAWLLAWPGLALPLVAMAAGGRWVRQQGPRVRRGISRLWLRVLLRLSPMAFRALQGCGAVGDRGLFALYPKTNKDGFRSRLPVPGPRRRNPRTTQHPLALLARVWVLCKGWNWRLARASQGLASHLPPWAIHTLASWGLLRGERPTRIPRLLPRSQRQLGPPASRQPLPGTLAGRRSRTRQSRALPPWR
Description: Selectivity interaction (KinomeScan (DiscoverX)) EUB0000655a TAOK2. To be noted: at 10 µM.

Test [3] concerns the target 5'-AMP-activated protein kinase catalytic subunit alpha-1 (Homo sapiens, UniProt Q13131). In words: Selectivity interaction (ActivX KiNativ screen (kinase selectivity in THP-1 cell lysates)) EUB0000639a PRKAA1. In kind it is subcellular. Particulars: lysate.
In test [4] the target is MAP kinase-activated protein kinase 3 (Homo sapiens) (UniProt Q16644). In words: Selectivity interaction (ActivX KiNativ screen (kinase selectivity in THP-1 cell lysates)) EUB0000639a MAPKAPK3. In kind it is subcellular. To be noted: lysate.
Sequence of MAP kinase-activated protein kinase 3 (Homo sapiens) (Q16644 whole entry, looked up): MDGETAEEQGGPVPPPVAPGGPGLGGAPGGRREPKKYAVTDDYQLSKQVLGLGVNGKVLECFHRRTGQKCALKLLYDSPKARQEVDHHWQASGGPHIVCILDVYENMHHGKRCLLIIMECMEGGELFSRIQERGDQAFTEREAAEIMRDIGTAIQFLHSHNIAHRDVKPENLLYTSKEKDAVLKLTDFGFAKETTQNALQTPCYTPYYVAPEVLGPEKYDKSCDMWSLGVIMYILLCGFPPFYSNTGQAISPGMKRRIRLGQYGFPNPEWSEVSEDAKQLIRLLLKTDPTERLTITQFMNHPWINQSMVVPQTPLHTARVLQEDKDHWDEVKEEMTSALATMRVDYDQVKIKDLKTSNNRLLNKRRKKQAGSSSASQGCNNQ
The target of test [5] is Serine/threonine-protein kinase Nek6 (Homo sapiens) (UniProt Q9HC98). In words: Selectivity interaction (ActivX KiNativ screen (ex vivo kinase selectivity in human PBMCs)) EUB0001619a NEK6. In kind it is cell-based. To be noted: PBMC, at 1 µM.
Sequence of Serine/threonine-protein kinase Nek6 (Homo sapiens) (Q9HC98 whole entry): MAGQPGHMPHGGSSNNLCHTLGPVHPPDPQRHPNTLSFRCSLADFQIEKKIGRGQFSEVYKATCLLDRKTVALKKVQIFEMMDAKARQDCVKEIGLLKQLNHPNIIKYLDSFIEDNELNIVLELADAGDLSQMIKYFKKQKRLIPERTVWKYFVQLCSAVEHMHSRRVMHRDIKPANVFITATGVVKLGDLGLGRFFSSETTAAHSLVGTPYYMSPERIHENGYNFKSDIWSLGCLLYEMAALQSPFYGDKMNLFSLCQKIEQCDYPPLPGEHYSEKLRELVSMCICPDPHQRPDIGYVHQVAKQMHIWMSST
Test [6] addresses T2, Serine/threonine-protein kinase ICK (Homo sapiens) (UniProt Q9UPZ9).
T2 sequence (whole entry): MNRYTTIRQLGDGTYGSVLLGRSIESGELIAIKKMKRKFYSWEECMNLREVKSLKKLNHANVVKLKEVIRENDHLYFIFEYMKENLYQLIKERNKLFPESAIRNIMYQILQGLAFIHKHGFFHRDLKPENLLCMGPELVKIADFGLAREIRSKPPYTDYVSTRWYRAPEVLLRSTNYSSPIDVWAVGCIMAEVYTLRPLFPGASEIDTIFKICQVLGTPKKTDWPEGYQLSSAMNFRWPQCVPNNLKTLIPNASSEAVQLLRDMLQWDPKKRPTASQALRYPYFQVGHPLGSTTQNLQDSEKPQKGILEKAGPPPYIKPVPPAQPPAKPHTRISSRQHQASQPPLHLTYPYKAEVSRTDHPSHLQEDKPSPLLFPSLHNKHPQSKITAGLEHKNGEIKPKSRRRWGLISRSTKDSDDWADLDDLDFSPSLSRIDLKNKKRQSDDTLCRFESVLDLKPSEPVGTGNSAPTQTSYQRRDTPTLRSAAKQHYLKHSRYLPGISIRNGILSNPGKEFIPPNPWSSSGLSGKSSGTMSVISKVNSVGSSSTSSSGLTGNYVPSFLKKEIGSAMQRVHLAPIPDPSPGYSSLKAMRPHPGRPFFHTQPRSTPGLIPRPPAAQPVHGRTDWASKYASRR
Description: Selectivity interaction (KinomeScan (DiscoverX)) EUB0000618a ICK. Particulars: at 10 µM.

For test [7], the target named is Casein kinase II subunit alpha' (Homo sapiens) (UniProt P19784). In words: Selectivity interaction (KinomeScan (DiscoverX)) EUB0000618a CSNK2A2. To be noted: at 10 µM.
Sequence of Casein kinase II subunit alpha' (Homo sapiens) (P19784 whole entry, looked up): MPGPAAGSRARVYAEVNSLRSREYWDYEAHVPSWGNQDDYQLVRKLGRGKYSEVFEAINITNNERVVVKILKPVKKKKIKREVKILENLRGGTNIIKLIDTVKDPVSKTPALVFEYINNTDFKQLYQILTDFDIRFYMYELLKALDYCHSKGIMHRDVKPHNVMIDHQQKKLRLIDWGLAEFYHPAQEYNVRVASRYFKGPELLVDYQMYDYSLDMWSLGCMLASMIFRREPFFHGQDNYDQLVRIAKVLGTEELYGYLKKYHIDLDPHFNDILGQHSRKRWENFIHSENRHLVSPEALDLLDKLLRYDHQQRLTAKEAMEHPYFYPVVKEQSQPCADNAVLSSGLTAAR

Sequence of 5'-AMP-activated protein kinase catalytic subunit alpha-1 (Q13131 whole entry, looked up): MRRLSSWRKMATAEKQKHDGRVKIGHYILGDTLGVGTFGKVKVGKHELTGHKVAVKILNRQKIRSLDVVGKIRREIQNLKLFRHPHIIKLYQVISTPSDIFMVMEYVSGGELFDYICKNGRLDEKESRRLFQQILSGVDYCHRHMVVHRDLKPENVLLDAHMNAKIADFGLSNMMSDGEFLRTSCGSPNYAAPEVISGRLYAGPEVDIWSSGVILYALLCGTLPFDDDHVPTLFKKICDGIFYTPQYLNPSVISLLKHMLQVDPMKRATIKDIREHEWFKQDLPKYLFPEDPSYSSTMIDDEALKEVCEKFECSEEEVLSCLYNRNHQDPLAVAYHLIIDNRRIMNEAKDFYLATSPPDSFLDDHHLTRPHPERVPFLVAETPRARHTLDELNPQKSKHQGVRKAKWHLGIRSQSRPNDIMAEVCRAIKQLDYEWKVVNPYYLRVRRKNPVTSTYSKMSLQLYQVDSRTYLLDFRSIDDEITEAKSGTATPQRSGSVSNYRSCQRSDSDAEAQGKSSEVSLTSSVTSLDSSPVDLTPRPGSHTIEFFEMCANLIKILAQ
Sequence of Platelet-derived growth factor receptor beta (P09619 whole entry): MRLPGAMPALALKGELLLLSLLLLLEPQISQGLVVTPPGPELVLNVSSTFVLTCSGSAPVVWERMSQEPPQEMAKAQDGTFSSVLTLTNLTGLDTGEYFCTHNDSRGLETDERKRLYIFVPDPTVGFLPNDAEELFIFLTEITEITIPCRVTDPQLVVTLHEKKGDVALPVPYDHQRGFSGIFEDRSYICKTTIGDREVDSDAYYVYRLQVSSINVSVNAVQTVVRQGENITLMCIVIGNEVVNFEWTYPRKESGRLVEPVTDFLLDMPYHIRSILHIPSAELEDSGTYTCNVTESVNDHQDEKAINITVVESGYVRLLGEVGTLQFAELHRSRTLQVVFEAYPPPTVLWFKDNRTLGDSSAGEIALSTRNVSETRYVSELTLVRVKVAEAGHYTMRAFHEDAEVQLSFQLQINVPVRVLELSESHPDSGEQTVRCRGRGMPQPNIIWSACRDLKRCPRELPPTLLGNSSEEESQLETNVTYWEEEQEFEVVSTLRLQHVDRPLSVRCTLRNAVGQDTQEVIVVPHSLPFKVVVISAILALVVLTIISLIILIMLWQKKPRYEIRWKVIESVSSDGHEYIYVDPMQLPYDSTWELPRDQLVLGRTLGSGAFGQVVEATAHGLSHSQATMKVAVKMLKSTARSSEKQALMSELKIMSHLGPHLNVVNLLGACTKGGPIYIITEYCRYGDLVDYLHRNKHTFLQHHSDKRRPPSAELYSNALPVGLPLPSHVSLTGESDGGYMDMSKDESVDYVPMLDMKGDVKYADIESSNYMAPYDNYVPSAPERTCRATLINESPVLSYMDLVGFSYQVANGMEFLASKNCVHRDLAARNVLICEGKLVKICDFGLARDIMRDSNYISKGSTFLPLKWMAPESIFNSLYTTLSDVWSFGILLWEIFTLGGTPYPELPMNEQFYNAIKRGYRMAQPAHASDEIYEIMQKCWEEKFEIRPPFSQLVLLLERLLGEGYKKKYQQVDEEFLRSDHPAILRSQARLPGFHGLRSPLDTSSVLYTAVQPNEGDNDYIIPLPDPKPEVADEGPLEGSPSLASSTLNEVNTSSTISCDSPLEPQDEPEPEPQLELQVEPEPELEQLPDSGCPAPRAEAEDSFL

In turn, `COc1cc(Nc2nc(C)cc(-c3cnn4nc(OC)ccc34)n2)cc(C(F)(F)F)c1` registered a % of control in test [1] of 100%.
With `CN(C)CCOc1ccc(-c2nc(-c3ccncc3)c(-c3ccc4c(c3)CC/C4=N\O)[nH]2)cc1`, the % of control in test [2] worked out at 65%.
As for `CC[C@@H]1[C@H](F)C(=O)N[C@@H]1COc1nccc2cc(C(N)=O)c(OC)cc12` [ZIMLOVISERTIB], the % of inhibition in test [3] (at 0.01 µM) is 16%; in test [3] (at 0.04 µM), 21.7%; in test [3] (at 0.2 µM) it was 11.2%; in test [3] (at 1 µM), 11.8%; in test [3] (at 5 µM), 28.8%; in test [4] (at 0.01 µM), 3.3%. For the same compound, the % of inhibition in test [4] (at 0.04 µM) is 10.6%; in test [4] (at 0.2 µM), 6.9%; in test [4] (at 1 µM), -0.7%; in test [4] (at 5 µM), 4.9%.
Turning to `N#Cc1cccc(-c2c[nH]c3ncnc(N4CCOCC4)c23)c1`, in test [5], the % of inhibition is -5%.
Take `O[C@H]1CC[C@H](Nc2ncc3nc(Nc4c(F)cc(F)cc4F)n([C@H]4CCOC4)c3n2)CC1`: the % of control was found to be 100% in test [6] and 96% in test [7].
